Measured values from patent US20230065740A1, “CYCLIN-DEPENDENT KINASE INHIBITORS” (SPV THERAPEUTICS INC., priority 2018, published 2023).

What was measured:
CDK4-CYCLIND1 = CDK4-CYCLIND1 (Homo sapiens, UniProt P11802); test: Microfluidic LabChip kinase inhibition assay, CDK4-CyclinD1; settings: CDK4 IC50 (μM), Table 2; 200 μM ATP, 1 nM enzyme
Protocol: Inhibition assays were performed using microfluidic LabChip 300 Drug Discovery System from Caliper Life Sciences. […] The assay has a total volume of 10 μL consisting of 5 μL of enzyme and buffer and 5 μL of substrate and buffer. The test compounds were diluted in 100% dimethylsulfoxide (DMSO) using 3-fold dilution steps. […] Compounds were tested in a single well for each dilution and the final concentration of DMSO was maintained at 1%.
The assay buffer contained 100 mM HEPES, pH 7.5, 0.01% Triton X-100, 0.1% bovine serum albumin (BSA), 5 mM MgCl2; 1 mM dithiothreitol (DTT), 10 μM sodium orthovanadate, and 10 μM β-glycerophosphate.
The assay was conducted by adding 5 μL of enzyme, adenosine triphosphate (ATP) and buffer to an assay plate. A 100 nL aliquot of the diluted compounds were added to the plate. The assay was initiated by the addition of 5 μL of phosphoenolpyruvate substrate (PEP) in buffer. […] The reaction was terminated by the addition of EDTA. The plates were analyzed using a Caliper LabChip 3000.

CDK6-CYCLIND3 = molecular target: T1, CDK6-CYCLIND3 (Homo sapiens, UniProt Q00534); test: Microfluidic LabChip kinase inhibition assay, CDK6-CyclinD3; assay type: biochemical; settings: Table 2; 300 μM ATP, 2 nM enzyme; read-out: CDK6 IC50
T1 construct: purchased Carna
T1 sequence (Q00534 whole entry): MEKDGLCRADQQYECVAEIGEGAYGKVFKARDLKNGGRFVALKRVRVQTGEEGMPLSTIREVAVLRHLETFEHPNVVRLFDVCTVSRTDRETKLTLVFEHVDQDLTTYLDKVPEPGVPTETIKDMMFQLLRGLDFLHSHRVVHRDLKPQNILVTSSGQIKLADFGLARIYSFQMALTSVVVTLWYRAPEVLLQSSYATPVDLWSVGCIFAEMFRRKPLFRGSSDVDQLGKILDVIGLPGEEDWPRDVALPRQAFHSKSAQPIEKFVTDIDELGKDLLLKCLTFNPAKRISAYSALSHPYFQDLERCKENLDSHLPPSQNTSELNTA
T1 sequence (P30281 whole entry partner): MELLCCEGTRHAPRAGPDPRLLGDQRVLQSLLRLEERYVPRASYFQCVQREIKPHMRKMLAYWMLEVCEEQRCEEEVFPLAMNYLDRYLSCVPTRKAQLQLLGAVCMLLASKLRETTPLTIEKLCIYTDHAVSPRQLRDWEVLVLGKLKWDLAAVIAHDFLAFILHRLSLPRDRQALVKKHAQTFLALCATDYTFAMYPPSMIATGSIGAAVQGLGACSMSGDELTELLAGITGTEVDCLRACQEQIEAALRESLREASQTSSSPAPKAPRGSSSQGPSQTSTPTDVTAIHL

CDK4-CYCLIND1, sequence (P11802 whole entry): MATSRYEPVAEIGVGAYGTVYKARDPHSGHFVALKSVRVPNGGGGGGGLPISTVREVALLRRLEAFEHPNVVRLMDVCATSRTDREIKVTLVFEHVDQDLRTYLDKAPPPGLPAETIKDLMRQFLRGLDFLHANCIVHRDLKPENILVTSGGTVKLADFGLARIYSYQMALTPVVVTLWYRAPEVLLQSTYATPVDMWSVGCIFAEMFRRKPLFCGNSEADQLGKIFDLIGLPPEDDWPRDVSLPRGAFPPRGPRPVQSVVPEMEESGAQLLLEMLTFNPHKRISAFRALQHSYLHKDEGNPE
CDK4-CYCLIND1, sequence (P24385 whole entry partner): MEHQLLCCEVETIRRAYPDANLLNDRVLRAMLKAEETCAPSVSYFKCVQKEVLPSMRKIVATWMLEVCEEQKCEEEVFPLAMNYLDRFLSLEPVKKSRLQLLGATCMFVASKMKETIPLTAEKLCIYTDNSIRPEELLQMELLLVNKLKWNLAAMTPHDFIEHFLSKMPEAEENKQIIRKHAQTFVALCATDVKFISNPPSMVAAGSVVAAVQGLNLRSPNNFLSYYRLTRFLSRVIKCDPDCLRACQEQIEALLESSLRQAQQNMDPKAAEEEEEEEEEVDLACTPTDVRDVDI

**Q.** Which IC50 (CDK4-CYCLIND1) does the source give for CC(C)N1CCN(c2ccc(Nc3ncc4c(n3)N(C3CCCC3)C3(CCNC3=O)C4)cc2)CC1 (stereo not drawn) [Compound C46, 7′-cyclopentyl-2′-((4-(4-isopropylpiperazin-1-yl)phenyl)amino)-5′,7′-dihydrospiro[pyrrolidine-3,6′-pyrrolo[2,3-d]pyrimidin]-2-one] here?
**A.** 0.0701 µM

**Q.** What about the IC50 (CDK6-CYCLIND3) of the same molecule?
**A.** 0.394 µM

**Q.** O=C1NCCC12Cc1cnc(Nc3ccc(N4CCNCC4)c(F)c3)nc1N2C1CCCC1 (stereo not drawn) [Compound C47, 7′-cyclopentyl-2′-((3-fluoro-4-(piperazin-1-yl)phenyl)amino)-5′,7′-dihydrospiro[pyrrolidine-3,6′-pyrrolo[2,3-d]pyrimidin]-2-one] was tested. Which IC50 (CDK4-CYCLIND1) did it give?
**A.** 0.0315 µM

**Q.** What about the IC50 (CDK6-CYCLIND3) of the same molecule?
**A.** 0.179 µM

**Q.** How did the IC50 (CDK4-CYCLIND1) turn out when CN1CCN(c2ccc(Nc3ncc4c(n3)N(C3CCCC3)C3(CCNC3=O)C4)cc2F)CC1 (stereo not drawn) [Compound C48, 7′-cyclopentyl-2′-((3-fluoro-4-(4-methylpiperazin-1-yl)phenyl)amino)-5′,7′-dihydrospiro[pyrrolidine-3,6′-pyrrolo[2,3-d]pyrimidin]-2-one] was run?
**A.** 0.0161 µM

**Q.** What about the IC50 (CDK6-CYCLIND3) of the same molecule?
**A.** 0.129 µM

**Q.** How did the IC50 (CDK4-CYCLIND1) turn out when CC(C)N1CCN(c2ccc(Nc3ncc4c(n3)N(C3CCCC3)C3(CCNC3=O)C4)cc2F)CC1 (stereo not drawn) [Compound C49, 7′-cyclopentyl-2′-((3-fluoro-4-(4-isopropylpiperazin-1-yl)phenyl)amino)-5′,7′-dihydrospiro[pyrrolidine-3,6′-pyrrolo[2,3-d]pyrimidin]-2-one] was run?
**A.** 0.0298 µM

**Q.** What about the IC50 (CDK6-CYCLIND3) of the same molecule?
**A.** 0.175 µM

**Q.** With O=C1NCCC12Cc1cnc(Nc3ccc(N4CCNCC4)cc3F)nc1N2C1CCCC1 (stereo not drawn) [Compound C50, 7′-cyclopentyl-2′-((2-fluoro-4-(piperazin-1-yl)phenyl)amino)-5′,7′-dihydrospiro[pyrrolidine-3,6′-pyrrolo[2,3-d]pyrimidin]-2-one] as the molecule, how does the IC50 (CDK4-CYCLIND1) read?
**A.** 0.888 µM

**Q.** What about the IC50 (CDK6-CYCLIND3) of the same molecule?
**A.** 4.21 µM

**Q.** Which IC50 (CDK4-CYCLIND1) does the source give for CN1CCN(c2ccc(Nc3ncc4c(n3)N(C3CCCC3)C3(CCNC3=O)C4)c(F)c2)CC1 (stereo not drawn) [Compound C51, 7′-cyclopentyl-2′-((2-fluoro-4-(4-methylpiperazin-1-yl)phenyl)amino)-5′,7′-dihydrospiro[pyrrolidine-3,6′-pyrrolo[2,3-d]pyrimidin]-2-one] here?
**A.** > 30 µM

**Q.** What about the IC50 (CDK6-CYCLIND3) of the same molecule?
**A.** > 30 µM

**Q.** For CC(C)N1CCN(c2ccc(Nc3ncc4c(n3)N(C3CCCC3)C3(CCNC3=O)C4)c(F)c2)CC1 (stereo not drawn) [Compound C52, 7′-cyclopentyl-2′-((2-fluoro-4-(4-isopropylpiperazin-1-yl)phenyl)amino)-5′,7′-dihydrospiro[pyrrolidine-3,6′-pyrrolo[2,3-d]pyrimidin]-2-one], which IC50 (CDK4-CYCLIND1) is on record?
**A.** > 30 µM

**Q.** And the IC50 (CDK6-CYCLIND3)?
**A.** > 30 µM

**Q.** What does the source list for O=C1NCCC12Cc1cnc(Nc3ccc(N4CCNCC4)nc3)nc1N2C1CCCC1 (stereo not drawn) [Compound C53, 7′-cyclopentyl-2′-((6-(piperazin-1-yl)pyridin-3-yl)amino)-5′,7′-dihydrospiro[pyrrolidine-3,6′-pyrrolo[2,3-d]pyrimidin]-2-one]?
**A.** IC50 (CDK4-CYCLIND1): 0.0658 µM; IC50 (CDK6-CYCLIND3): 0.26 µM

**Q.** What does the source list for CN1CCN(c2ccc(Nc3ncc4c(n3)N(C3CCCC3)C3(CCNC3=O)C4)cn2)CC1 (stereo not drawn) [Compound C54, 7′-cyclopentyl-2′-((6-(4-methylpiperazin-1-yl)pyridin-3-yl)amino)-5′,7′-dihydrospiro[pyrrolidine-3,6′-pyrrolo[2,3-d]pyrimidin]-2-one]?
**A.** IC50 (CDK4-CYCLIND1): 0.0926 µM; IC50 (CDK6-CYCLIND3): 0.414 µM

**Q.** With CC(C)N1CCN(c2ccc(Nc3ncc4c(n3)N(C3CCCC3)C3(CCNC3=O)C4)cn2)CC1 (stereo not drawn) [Compound C55, 7′-cyclopentyl-2′-((6-(4-isopropylpiperazin-1-yl)pyridin-3-yl)amino)-5′,7′-dihydrospiro[pyrrolidine-3,6′-pyrrolo[2,3-d]pyrimidin]-2-one] as the molecule, how does the IC50 (CDK4-CYCLIND1) read?
**A.** 0.053 µM

**Q.** What about the IC50 (CDK6-CYCLIND3) of the same molecule?
**A.** 0.221 µM

**Q.** How did the IC50 (CDK4-CYCLIND1) turn out when O=C1NCCC12Cc1cnc(Nc3ccc(C4=CCNCC4)cn3)nc1N2C1CCCC1 (stereo not drawn) [Compound C56, 7′-cyclopentyl-2′-((1′,2′,3′,6′-tetrahydro-[3,4′-bipyridin]-6-yl)amino)-5′,7′-dihydrospiro[pyrrolidine-3,6′-pyrrolo[2,3-d]pyrimidin]-2-one] was run?
**A.** 0.372 µM

**Q.** What about the IC50 (CDK6-CYCLIND3) of the same molecule?
**A.** 0.803 µM

**Q.** How did the IC50 (CDK4-CYCLIND1) turn out when CC(C)N1CC=C(c2ccc(Nc3ncc4c(n3)N(C3CCCC3)C3(CCNC3=O)C4)nc2)CC1 (stereo not drawn) [Compound C57, 7′-cyclopentyl-2′-((1′-isopropyl-1′,2′,3′,6′-tetrahydro-[3,4′-bipyridin]-6-yl)amino)-5′,7′-dihydrospiro[pyrrolidine-3,6′-pyrrolo[2,3-d]pyrimidin]-2-one] was run?
**A.** 0.387 µM

**Q.** And the IC50 (CDK6-CYCLIND3)?
**A.** 0.952 µM

**Q.** O=C1NCCC12Cc1cnc(Nc3ccc(N4CCOCC4)c(F)c3)nc1N2C1CCCC1 (stereo not drawn) [Compound C58, 7′-cyclopentyl-2′-((3-fluoro-4-morpholinophenyl)amino)-5′,7′-dihydrospiro[pyrrolidine-3,6′-pyrrolo[2,3-d]pyrimidin]-2-one] was tested. Which IC50 (CDK4-CYCLIND1) did it give?
**A.** 0.222 µM

**Q.** What about the IC50 (CDK6-CYCLIND3) of the same molecule?
**A.** 0.932 µM

**Q.** Which IC50 (CDK4-CYCLIND1) does the source give for CN(C)CCOc1ccc(Nc2ncc3c(n2)N(C2CCCC2)C2(CCNC2=O)C3)cc1 (stereo not drawn) [Compound C59, 7′-cyclopentyl-2′-((4-(2-(dimethylamino)ethoxy)phenyl)amino)-5′,7′-dihydrospiro[pyrrolidine-3,6′-pyrrolo[2,3-d]pyrimidin]-2-one] here?
**A.** 0.142 µM

**Q.** And the IC50 (CDK6-CYCLIND3)?
**A.** 0.63 µM

**Q.** CN(C)CCOc1ccc(Nc2ncc3c(n2)N(C2CCCC2)C2(CCNC2=O)C3)nc1 (stereo not drawn) [Compound C60, 7′-cyclopentyl-2′-((5-(2-(dimethylamino)ethoxy)pyridin-2-yl)amino)-5′,7′-dihydrospiro[pyrrolidine-3,6′-pyrrolo[2,3-d]pyrimidin]-2-one] was tested. Which IC50 (CDK4-CYCLIND1) did it give?
**A.** 1.5 µM

**Q.** And the IC50 (CDK6-CYCLIND3)?
**A.** 3.42 µM

**Q.** Which results are given for CN(C)CCOc1ccc(Nc2ncc3c(n2)N(C2CCCC2)C2(CCNC2=O)C3)cn1 (stereo not drawn) [Compound C61, 7′-cyclopentyl-2′-((6-(2-(dimethylamino)ethoxy)pyridin-3-yl)amino)-5′,7′-dihydrospiro[pyrrolidine-3,6′-pyrrolo[2,3-d]pyrimidin]-2-one]?
**A.** IC50 (CDK4-CYCLIND1): 0.19 µM; IC50 (CDK6-CYCLIND3): 0.793 µM

**Q.** COc1cc(Nc2ncc3c(n2)N(C2CCCC2)C2(CCNC2=O)C3)ccc1N1CCN(C(C)C)CC1 (stereo not drawn) [Compound C62, 7′-cyclopentyl-2′-((4-(4-isopropylpiperazin-1-yl)-3-methoxyphenyl)amino)-5′,7′-dihydrospiro[pyrrolidine-3,6′-pyrrolo[2,3-d]pyrimidin]-2-one] was tested. Which IC50 (CDK4-CYCLIND1) did it give?
**A.** 0.288 µM

**Q.** What about the IC50 (CDK6-CYCLIND3) of the same molecule?
**A.** 1.95 µM

**Q.** Which results are given for Cc1cc(Nc2ncc3c(n2)N(C2CCCC2)C2(CCNC2=O)C3)ccc1N1CCN(C(C)C)CC1 (stereo not drawn) [Compound C63, 7′-cyclopentyl-2′-((4-(4-isopropylpiperazin-1-yl)-3-methylphenyl)amino)-5′,7′-dihydrospiro[pyrrolidine-3,6′-pyrrolo[2,3-d]pyrimidin]-2-one]?
**A.** IC50 (CDK4-CYCLIND1): 0.172 µM; IC50 (CDK6-CYCLIND3): 0.899 µM

**Q.** How did the IC50 (CDK4-CYCLIND1) turn out when CN(C)C(=O)c1cc2cnc(Nc3ccc(N4CCN(C#N)CC4)cn3)nc2n1C1CCCC1 [Compound C64, 2-((5-(4-cyanopiperazin-1-yl)pyridin-2-yl)amino)-7-cyclopentyl-N,N-dimethyl-7H-pyrrolo[2,3-d]pyrimidine-6-carboxamide] was run?
**A.** > 30 µM

**Q.** What about the IC50 (CDK6-CYCLIND3) of the same molecule?
**A.** > 30 µM

**Q.** Which results are given for CN1C(=O)CC2(Cc3cnc(Nc4ccc(N5CCNCC5)cn4)nc3N2C2CCCC2)C1=O (stereo not drawn) [Compound C65, 7′-cyclopentyl-1-methyl-2′-((5-(piperazin-1-yl)pyridin-2-yl)amino)-5′,7′-dihydrospiro[pyrrolidine-3,6′-pyrrolo[2,3-d]pyrimidine]-2,5-dione]?
**A.** IC50 (CDK4-CYCLIND1): 12.3 µM; IC50 (CDK6-CYCLIND3): 15.4 µM

**Q.** For CN1CCN(c2ccc(Nc3ncc4c(n3)N(C3CCCC3)C3(CC(=O)N(C)C3=O)C4)nc2)CC1 (stereo not drawn) [Compound C66, 7′-cyclopentyl-1-methyl-2′-((5-(4-methylpiperazin-1-yl)pyridin-2-yl)amino)-5′,7′-dihydrospiro[pyrrolidine-3,6′-pyrrolo[2,3-d]pyrimidine]-2,5-dione], which IC50 (CDK4-CYCLIND1) is on record?
**A.** 29.8 µM

**Q.** What about the IC50 (CDK6-CYCLIND3) of the same molecule?
**A.** > 30 µM

**Q.** With CC(C)N1CCN(c2ccc(Nc3ncc4c(n3)N(C3CCCC3)C3(CC(=O)N(C)C3=O)C4)nc2)CC1 (stereo not drawn) [Compound C67, 7′-cyclopentyl-2′-((5-(4-isopropylpiperazin-1-yl)pyridin-2-yl)amino)-1-methyl-5′,7′-dihydrospiro[pyrrolidine-3,6′-pyrrolo[2,3-d]pyrimidine]-2,5-dione] as the molecule, how does the IC50 (CDK4-CYCLIND1) read?
**A.** 26.7 µM

**Q.** And the IC50 (CDK6-CYCLIND3)?
**A.** > 30 µM

**Q.** How did the IC50 (CDK4-CYCLIND1) turn out when CN1C(=O)CC2(Cc3cnc(Nc4ccc(N5CCNCC5)cc4)nc3N2C2CCCC2)C1=O (stereo not drawn) [Compound C68, 7′-cyclopentyl-1-methyl-2′-((4-(piperazin-1-yl)phenyl)amino)-5′,7′-dihydrospiro[pyrrolidine-3,6′-pyrrolo[2,3-d]pyrimidine]-2,5-dione] was run?
**A.** 2.49 µM

**Q.** What about the IC50 (CDK6-CYCLIND3) of the same molecule?
**A.** 6.68 µM

**Q.** With CN1CCN(c2ccc(Nc3ncc4c(n3)N(C3CCCC3)C3(CC(=O)N(C)C3=O)C4)cc2)CC1 (stereo not drawn) [Compound C69, 7′-cyclopentyl-1-methyl-2′-((4-(4-methylpiperazin-1-yl)phenyl)amino)-5′,7′-dihydrospiro[pyrrolidine-3,6′-pyrrolo[2,3-d]pyrimidine]-2,5-dione] as the molecule, how does the IC50 (CDK4-CYCLIND1) read?
**A.** 1.08 µM

**Q.** And the IC50 (CDK6-CYCLIND3)?
**A.** 2.79 µM

**Q.** CC(C)N1CCN(c2ccc(Nc3ncc4c(n3)N(C3CCCC3)C3(CC(=O)N(C)C3=O)C4)cc2)CC1 (stereo not drawn) [Compound C70, 7′-cyclopentyl-2′-((4-(4-isopropylpiperazin-1-yl)phenyl)amino)-1-methyl-5′,7′-dihydrospiro[pyrrolidine-3,6′-pyrrolo[2,3-d]pyrimidine]-2,5-dione] was tested. Which IC50 (CDK4-CYCLIND1) did it give?
**A.** 0.159 µM

**Q.** What about the IC50 (CDK6-CYCLIND3) of the same molecule?
**A.** 0.346 µM

**Q.** How did the IC50 (CDK4-CYCLIND1) turn out when CN1C(=O)CC2(Cc3cnc(Nc4ccc(N5CCNCC5)c(F)c4)nc3N2C2CCCC2)C1=O (stereo not drawn) [Compound C71, 7′-cyclopentyl-2′-((3-fluoro-4-(piperazin-1-yl)phenyl)amino)-1-methyl-5′,7′-dihydrospiro[pyrrolidine-3,6′-pyrrolo[2,3-d]pyrimidine]-2,5-dione] was run?
**A.** 4.94 µM

**Q.** What about the IC50 (CDK6-CYCLIND3) of the same molecule?
**A.** 11.7 µM

**Q.** What does the source list for CN1CCN(c2ccc(Nc3ncc4c(n3)N(C3CCCC3)C3(CC(=O)N(C)C3=O)C4)cc2F)CC1 (stereo not drawn) [Compound C72, 7′-cyclopentyl-2′-((3-fluoro-4-(4-methylpiperazin-1-yl)phenyl)amino)-1-methyl-5′,7′-dihydrospiro[pyrrolidine-3,6′-pyrrolo[2,3-d]pyrimidine]-2,5-dione]?
**A.** IC50 (CDK4-CYCLIND1): 2.53 µM; IC50 (CDK6-CYCLIND3): 13.9 µM
